Data taken from US20230076733A1, “Combination Therapy” (AGENCY FOR SCIENCE, TECHNOLOGY AND RESEARCH, priority 2020, published 2023).
Where “and” joins values, the source holds several entries; their conditions need not be identical. Equal entries are not always repeated.

Columns and labels:
Type in all cases: cell-based
[1] = test system: EGI-1 cells; assay: soft agar colony formation assay, EGI-1 cells; settings: for Colony count: duplicate wells
Protocol: (§1) The IC50 and EC50 values for each combination partner (a) and (b) with the specific cell lines are determined from the response plot. A dose-response assay for each combination partner and the combination at different concentrations based on the IC50 values of each combination partner was performed. Computed EC50-EC95 values were then generated by a software (as disclosed herein) based on the drug concentration and the respective colony growth numbers.
(§2) 6. Cell lines used and number of cells seeded per well
(§3) (1) Base Layer—0.6% Agar per 300 μL per well.
(§4) Microwave the agar for 1-2 min so that it is completely melted. Add 5.4 ml of the melted agar into 21.6 ml of pre-warmed media (All media and agar preparation is made in excess for 2.5 plates). Aliquot 300 μl of the suspension into each well, avoiding the first and last columns of the plates. Fill the first and last columns of wells with 500 μl of sterile water or phosphate buffered saline. Incubate the plates in 37° C. incubator for 45 min-1 hr to allow agar to solidify.
(§5) (2) Middle Layer— 0.3% Agar plus corresponding number of cells per well
(§6) Trypsinize the adherent cells and suspend them in 5 ml of media. Determine the number of cells in the suspension and calculate the volume of cell suspension required for seeding. Mix the agar and media together first, excluding the volume of cell suspension. Add the cell suspension last into the mixture. Mix well and aliquot 250 μl into each well containing the base layer. Incubate the plates in a 37° C. incubator for 1-1.5 hrs to allow the agar to solidify.
(§7) Prepare the required concentration of compounds based on the IC50 values of each drug.
(§8) (Pre-determine the IC50 values for each drug with the corresponding cell-line using a dose-response assay)
(§9) Row A& B: Aliquot 250 μl of diluted Drug A per well
(§10) Row C&D: Aliquot 250 μl of diluted Drug B per well
(§11) Row E& F: Aliquot 250 μl of diluted Drug A and B mixed at 1:1 ratio for each well
(§12) Assay Results Analysis Method • 1. Score the colonies after 2 to 3 weeks depending on the colony forming status for different cell line. • 2. Before scoring the colonies, add 35 μl MTT (5 mg/ml) to the wells with cells and incubate at 37° C. for 2-3 hrs depending on the intensity of colour development. • 3. Once the colonies are stained, count the total number of colonies formed using the Oxford Optronix GelCount® instrument. • 4. Average the total number of colonies obtained for each drug dose point and represent it as a fraction over the control. This represents the fraction of colony growth. […] Incorporate the fraction of inhibition and the corresponding dose values into the Chou Talalay Software available online (http://www.combosyn.com/) to obtain the combination index values. • 6. The combination index values will give an indication as to whether the combined drugs are synergistic, antagonistic or additive in the treated cells, as shown in Table 2 below.
FIG. 2 illustrates a dose-response assay plate containing EGI-1 cells (Test 1) after testing compounds at different concentrations based on the IC50 values of each compound. EGI-1 is a cell line established from cholangiocarcinoma (bile duct adenocarcinoma).

[2] = test system: HPAF-II cells; assay: soft agar colony formation assay, HPAF-II cells; settings: for Colony count: HPAF-II, duplicate wells
Protocol: as §1, §2, §3, §4, §5, §6, §7, §8, §9, §10, §11, §12
FIG. 4 illustrates of a dose-response assay plate containing HPAF-II cells (Test 1) after testing compounds at different concentrations based on the IC50 values of each compound. HPAF-II is a cell line established from pancreatic ductal adenocarcinoma (pancreatic cancer).

[3] = test system: MCAS cells; assay: soft agar colony formation assay, MCAS cells; settings: for Colony count: MCAS, duplicate wells
Protocol: as §1, §2, §3, §4, §5, §6, §7, §8, §9, §10, §11
as §12, with “6.” for “6. The combination index values will give an indication as to whether the combined drugs are synergistic, antagonistic or additive in the treated cells, as shown in Table 2 below.”
MCAS is a cell line established from ovarian mucinous cystadenocarcinoma (ovarian cancer).

[4] = test system: CFPAC-1 cells; assay: soft agar colony formation assay, CFPAC-1 cells; settings: for Colony count: duplicate wells
Protocol: as §1, §2, §3, §4, §5, §6, §7, §8, §9, §10, §11, §12
FIG. 8 illustrates a dose-response assay plate containing CFPAC-1 cells (Test 1) after testing compounds at different concentrations based on the IC50 values of each compound. CFPAC-1 is a cell line established from cystic fibrosis and pancreatic ductal adenocarcinoma.

[5] = test system: TFK-1 cells; assay: soft agar colony formation assay, TFK-1 cells; settings: for Colony count: duplicate wells
Protocol: as §1, §2, §3, §4, §5, §6, §7, §8, §9, §10, §11, §12
FIG. 10 illustrates a dose-response assay plate containing TFK-1 cells (Test 1) after testing compounds at different concentrations based on the IC50 values of each compound. TFK-1 is a cell line established from cholangiocarcinoma (bile duct adenocarcinoma).

Cn1c(=O)c2c(ncn2CC(=O)Nc2ccc(-c3ccccc3)nn2)n(C)c1=O [Ex 1, 2-(1,3-dimethyl-2,6-dioxo-2,3-dihydro-1H-purin-7 (6H)-yl)-N-(6-phenylpyridazin-3-yl)acetamide]
Colony count ([1]; EGI-1, Test 1, 0.25x IC50: dose Olaparib 2.16362, Ex 1 0.00687, combination both 1:1): 1742 and 1591 | Colony count ([1]; EGI-1, Test 1, 0.5x IC50: dose Olaparib 4.32725, Ex 1 0.01375, combination both 1:1): 1351 | Colony count ([1]; EGI-1, Test 1, 1x IC50: dose Olaparib 8.6545, Ex 1 0.0275, combination both 1:1): 985 and 912 | Colony count ([1]; EGI-1, Test 1, 2x IC50: dose Olaparib 17.309, Ex 1 0.055, combination both 1:1): 608 and 646 | Colony count ([1]; EGI-1, Test 1, 4x IC50: dose Olaparib 34.618, Ex 1 0.11, combination both 1:1): 515 and 465 | Colony count ([1]; EGI-1, Test 2, 0.25x IC50: dose Olaparib 2.16362, Ex 1 0.00687, combination both 1:1): 1488 and 1451 | Colony count ([1]; EGI-1, Test 2, 0.5x IC50: dose Olaparib 4.32725, Ex 1 0.01375, combination both 1:1): 1242 and 1139 | Colony count ([1]; EGI-1, Test 2, 1x IC50: dose Olaparib 8.6545, Ex 1 0.0275, combination both 1:1): 816 and 771 | Colony count ([1]; EGI-1, Test 2, 2x IC50: dose Olaparib 17.309, Ex 1 0.055, combination both 1:1): 568 and 476 | Colony count ([1]; EGI-1, Test 2, 4x IC50: dose Olaparib 34.618, Ex 1 0.11, combination both 1:1): 434 and 412 | IC50 ([1]; EGI-1 cells, pre-determined by dose-response assay): 27.5 nM | IC50 ([2]; HPAF-II cells, pre-determined by dose-response assay): 7.7 nM | Colony count ([2]; Test 1, 0.25x IC50: dose Olaparib 9.7975, Ex 1 0,001929, combination both 1:1): 564 and 493 | Colony count ([2]; Test 1, 0.5x IC50: dose Olaparib 19.535, Ex 1 0.003883, combination both 1:1): 499 and 416 | Colony count ([2]; Test 1, 1x IC50: dose Olaparib 39.19, Ex 1 0,007577, combination both 1:1): 387 and 453 | Colony count ([2]; Test 1, 2x IC50: dose Olaparib 78.38, Ex 1 0.015354, combination both 1:1): 362 and 345 | Colony count ([2]; Test 1, 4x IC50: dose Olaparib 156.76, Ex 1 0.030707, combination both 1:1): 260 and 201 | Colony count ([2]; Test 2, 0.25x IC50: dose Olaparib 9.7975, Ex 1 0.001929, combination both 1:1): 350 and 489 | Colony count ([2]; Test 2, 0.5x IC50: dose Olaparib 13.595, Ex 1 0.003838, combination both 1:1): 415 and 426 | Colony count ([2]; Test 2, 1x IC50: dose Olaparib 39.19, Ex 1 0.007677, combination both 1:1): 296 | Colony count ([2]; Test 2, 2x IC50: dose Olaparib 78.38, Ex 1 0.015354, combination both 1:1): 200 and 150 | Colony count ([2]; Test 2, 4x IC50: dose Olaparib 156.76, Ex 1 0.030707, combination both 1:1): 127 and 105 | IC50 ([3]; MCAS cells, pre-determined by dose-response assay): 287 nM | Colony count ([3]; Test 1, 0.25x IC50: dose Olaparib 0.99475, Ex 1 0.07175, combination both 1:1): 598 and 557 | Colony count ([3]; Test 1, 0.5x IC50: dose Olaparib 1.9895, Ex 1 0.1435, combination both 1:1): 462 and 445 | Colony count ([3]; Test 1, 1x IC50: dose Olaparib 3.979, Ex 1 0.287, combination both 1:1): 301 and 328 | Colony count ([3]; Test 1, 2x IC50: dose Olaparib 7.958, Ex 1 0.574, combination both 1:1): 252 and 273 | Colony count ([3]; Test 1, 4x IC50: dose Olaparib 15.918, Ex 1 1.148, combination both 1:1): 147 and 151 | Colony count ([3]; Test 2, 0.25x IC50: dose Olaparib 0.99475, Ex 1 0.07175, combination both 1:1): 976 and 921 | Colony count ([3]; Test 2, 0.5x IC50: dose Olaparib 1.9895, Ex 1 0.1435, combination both 1:1): 744 and 875 | Colony count ([3]; Test 2, 1x IC50: dose Olaparib 3.979, Ex 1 0.287, combination both 1:1): 694 and 706 | Colony count ([3]; Test 2, 2x IC50: dose Olaparib 7.958, Ex 1 0.574, combination both 1:1): 644 and 588 | Colony count ([3]; Test 2, 4x IC50: dose Olaparib 15.916, Ex 1 1.148, combination both 1:1): 419 and 326 | Colony count ([4]; CFPAC-1, Test 1, 0.25x IC50: dose Olaparib 1.5625, Ex 1 0.00675, combination both 1:1): 441 and 464 | Colony count ([4]; CFPAC-1, Test 1, 0.5x IC50: dose Olaparib 3.125, Ex 1 0.0135, combination both 1:1): 445 and 505 | Colony count ([4]; CFPAC-1, Test 1, 1x IC50: dose Olaparib 6.25, Ex 1 0.027, combination both 1:1): 386 and 412 | Colony count ([4]; CFPAC-1, Test 1, 2x IC50: dose Olaparib 12.5, Ex 1 0.054, combination both 1:1): 346 and 322 | Colony count ([4]; CFPAC-1, Test 1, 4x IC50: dose Olaparib 25, Ex 1 0.108, combination both 1:1): 315 and 320 | Colony count ([4]; CFPAC-1, Test 2, 0.25x IC50: dose Olaparib 1.5625, Ex 1 0.00675, combination both 1:1): 676 and 624 | Colony count ([4]; CFPAC-1, Test 2, 1x IC50: dose Olaparib 6.25, Ex 1 0.027, combination both 1:1): 649 and 563 | Colony count ([4]; CFPAC-1, Test 2, 2x IC50: dose Olaparib 12.5, Ex 1 0.054, combination both 1:1): 581 and 588 | Colony count ([4]; CFPAC-1, Test 2, 4x IC50: dose Olaparib 25, Ex 1 0.108, combination both 1:1): 536 and 527 | IC50 ([4]; CFPAC-1 cells, pre-determined by dose-response assay): 27 nM | Colony count ([5]; TFK-1, Test 1, 0.25x IC50: dose Olaparib 4.5, Ex 1 3, combination both 1:1): 921 and 950 | Colony count ([5]; TFK-1, Test 1, 0.5x IC50: dose Olaparib 9, Ex 1 6, combination both 1:1): 805 and 700 | Colony count ([5]; TFK-1, Test 1, 1x IC50: dose Olaparib 18, combination both 1:1): 557 and 581 | Colony count ([5]; TFK-1, Test 1, 2x IC50: dose Olaparib 36, Ex 1 24, combination both 1:1): 402 and 384 | Colony count ([5]; TFK-1, Test 1, 4x IC50: dose Olaparib 72, Ex 1 48, combination both 1:1): 239 and 198 | Colony count ([5]; TFK-1, Test 2, 0.25x IC50: dose Olaparib 4.5, Ex 1 3, combination both 1:1): 916 and 840 | Colony count ([5]; TFK-1, Test 2, 0.5x IC50: dose Olaparib 9, Ex 1 6, combination both 1:1): 770 and 818 | Colony count ([5]; TFK-1, Test 2, 1x IC50: dose Olaparib 18, combination both 1:1): 567 and 559 | Colony count ([5]; TFK-1, Test 2, 2x IC50: dose Olaparib 36, Ex 1 24, combination both 1:1): 336 and 249 | Colony count ([5]; TFK-1, Test 2, 4x IC50: dose Olaparib 72, Ex 1 48, combination both 1:1): 101 and 148 | IC50 ([5]; TFK-1 cells, pre-determined by dose-response assay): 12000 nM
